From US20040024024A1, “Aromatic sulfone hydroxamates and their use as protease inhibitors” (priority 2001, published 2004)

Assays:
Assay in all cases: In vitro MMP inhibition, IC50 determination (fluorogenic substrate I)
Type in all cases: biochemical
Human recombinant MMP-1 = molecular target: T1, Human recombinant MMP-1 (Homo sapiens, UniProt P03956)
T1 construct: made in house; host or cells: MMP-1-transfected HT-1080 cells (spent media)
T1 sequence (P03956 100-469): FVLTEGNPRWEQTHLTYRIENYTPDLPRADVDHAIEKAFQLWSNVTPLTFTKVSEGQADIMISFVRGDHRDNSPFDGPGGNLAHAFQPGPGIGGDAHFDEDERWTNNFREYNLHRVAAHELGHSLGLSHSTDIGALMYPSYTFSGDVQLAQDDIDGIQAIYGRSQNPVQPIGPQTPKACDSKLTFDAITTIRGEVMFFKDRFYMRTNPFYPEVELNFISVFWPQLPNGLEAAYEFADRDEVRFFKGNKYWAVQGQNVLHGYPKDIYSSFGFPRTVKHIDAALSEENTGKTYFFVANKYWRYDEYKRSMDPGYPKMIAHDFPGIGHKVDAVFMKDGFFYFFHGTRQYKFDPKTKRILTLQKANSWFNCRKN
How it was run: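 APMA- or trypsin-activated enzyme, purified from spent media of transfected HT-1080 cells, incubated at room temperature with 4 μM MCA-Pro-Leu-Gly-Leu-Dpa-Ala-Arg-NH2 and graded inhibitor in Tris buffer pH 7.5 (10 mM CaCl2, 0.05% Brij). Cleavage read by fluorescence (ex 328/em 415 nm); IC50 from fluorescence reduction versus inhibitor concentration.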

Human recombinant MMP-2 = molecular target: T2, Human recombinant MMP-2 (Homo sapiens, UniProt P08253)
T2 construct: made in house; host or cells: MMP-2-transfected p2AHT2 cells
T2 sequence (P08253 110-660): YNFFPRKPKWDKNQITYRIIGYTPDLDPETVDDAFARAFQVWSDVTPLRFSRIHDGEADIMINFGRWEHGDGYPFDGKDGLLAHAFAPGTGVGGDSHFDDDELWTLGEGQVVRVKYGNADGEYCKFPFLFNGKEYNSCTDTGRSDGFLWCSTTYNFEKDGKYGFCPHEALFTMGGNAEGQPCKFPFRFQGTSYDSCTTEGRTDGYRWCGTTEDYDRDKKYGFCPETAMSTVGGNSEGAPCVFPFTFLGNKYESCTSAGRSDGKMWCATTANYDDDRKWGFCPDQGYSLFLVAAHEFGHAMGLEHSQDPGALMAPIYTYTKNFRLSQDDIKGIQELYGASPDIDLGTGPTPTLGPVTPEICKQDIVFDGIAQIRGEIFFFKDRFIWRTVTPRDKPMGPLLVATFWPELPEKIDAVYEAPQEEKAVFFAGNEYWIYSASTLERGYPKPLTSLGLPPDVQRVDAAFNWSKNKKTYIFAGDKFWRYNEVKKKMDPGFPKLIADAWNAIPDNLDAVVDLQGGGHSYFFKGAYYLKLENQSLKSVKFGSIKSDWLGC
How it was run: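 APMA- or trypsin-activated recombinant MMP-2 was incubated at room temperature with serial inhibitor dilutions in Tris buffer pH 7.5 (100 mM NaCl, 10 mM CaCl2, 0.05% Brij), with DMSO from 1% stocks, and 4 μM substrate I. Cleavage was read by fluorescence at 328/415 nm; IC50 was taken from the loss of fluorescence versus inhibitor concentration.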

Human recombinant MMP-9 = molecular target: T3, Human recombinant MMP-9 (Homo sapiens, UniProt P14780)
T3 construct: made in house; host or cells: MMP-9-transfected HT1080 cells (spent media)
How it was run: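 MMP-9 proenzyme purified from transfected HT1080 cell media, activated with APMA or trypsin. Compound dilutions in pH 7.5 Tris/NaCl/CaCl2 buffer with 0.05% polyoxyethylene 23 lauryl ether, incubated at room temperature with 4 μM MCA/Dpa substrate I. IC50 from fluorescence loss (ex 328, em 415 nm) versus inhibitor concentration.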

Human recombinant MMP-13 = molecular target: T4, Human recombinant MMP-13 (Homo sapiens, UniProt P45452)
T4 construct: made in house; host or cells: baculovirus / insect cells
How it was run: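 Fluorescence at 415 nm (excitation 328 nm) reports Gly-Leu cleavage of 4 μM quenched methoxycoumarin peptide substrate I. Human recombinant MMP-13, activated by trypsin or APMA, was incubated at room temperature with varied inhibitor concentrations in pH 7.5 Tris/NaCl/CaCl2 buffer; IC50 derived from reduced fluorescence.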

Human recombinant MMP-14 = molecular target: T5, Human recombinant MMP-14 (Homo sapiens, UniProt P50281)
T5 construct: The catalytic domain enzyme was expressed in E. coli inclusion bodies, solubilized in urea; made in house
How it was run: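 Catalytic-domain MMP-14, expressed in E. coli and refolded, activated with APMA or trypsin; compounds incubated at room temperature with 4 μM fluorogenic substrate I (MCA-PLGL-Dpa-AR-NH2) in Tris/NaCl/CaCl2 buffer, pH 7.5. Fluorescence at ex 328/em 415 nm; IC50 from loss of fluorescence versus inhibitor concentration.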

[1] = value outside parentheses (Ki in parenthesis)
[2] = substrate (I) 4 μM, room temperature, values not in parenthesis

T3 sequence (P14780 107-707 limits assumed): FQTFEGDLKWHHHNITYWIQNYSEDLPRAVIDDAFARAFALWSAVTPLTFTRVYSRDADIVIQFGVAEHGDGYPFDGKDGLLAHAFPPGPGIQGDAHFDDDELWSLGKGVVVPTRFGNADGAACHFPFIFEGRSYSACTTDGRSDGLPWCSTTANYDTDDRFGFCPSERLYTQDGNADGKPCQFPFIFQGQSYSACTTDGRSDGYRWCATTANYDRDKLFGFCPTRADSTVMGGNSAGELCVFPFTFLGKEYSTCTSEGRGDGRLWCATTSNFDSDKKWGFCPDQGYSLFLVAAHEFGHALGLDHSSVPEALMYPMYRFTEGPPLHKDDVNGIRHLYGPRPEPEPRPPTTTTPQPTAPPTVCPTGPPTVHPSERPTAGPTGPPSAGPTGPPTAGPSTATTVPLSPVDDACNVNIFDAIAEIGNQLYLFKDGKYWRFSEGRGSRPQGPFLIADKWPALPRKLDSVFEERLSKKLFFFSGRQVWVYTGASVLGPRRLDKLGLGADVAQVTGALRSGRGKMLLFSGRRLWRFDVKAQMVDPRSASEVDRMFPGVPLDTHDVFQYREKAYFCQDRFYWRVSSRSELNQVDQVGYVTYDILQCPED

Row | IC50 (Human recombinant MMP-1; value outside parenthesis) | IC50 (Human recombinant MMP-2; value outside parenthesis) | IC50 (Human recombinant MMP-9; value outside parenthesis) | IC50 (Human recombinant MMP-13; value outside parenthesis) | IC50 (Human recombinant MMP-14; value outside parenthesis) | further results | SMILES
1 | > 10000 nM | 85.8 nM | 1130 nM | 0.4 nM | > 10000 nM |  | COCCN1CCC(C(=O)NO)(S(=O)(=O)c2ccc(OCCCn3nnc(-c4ccc(C(F)(F)F)cc4)n3)cc2)CC1 [Example 103]
2 |  |  |  |  |  | IC50 (Human recombinant MMP-1; value outside parentheses): 4920 nM; IC50 (Human recombinant MMP-2; value outside parentheses): 1.9 nM; IC50 (Human recombinant MMP-9; value outside parentheses): 42.6 nM; IC50 (Human recombinant MMP-13; value outside parentheses): 1.3 nM; IC50 (Human recombinant MMP-14; value outside parentheses): 2060 nM | O=C(Cc1ccsc1)NCCOc1ccc(S(=O)(=O)C2(C(=O)NO)CCOCC2)cc1 [Example 601]
3 | > 10000 nM | 74.2 nM | 878 nM | 5.6 nM | > 10000 nM |  | O=C1CN(c2cccc(OC(F)(F)F)c2)C(=O)N1CCCOc1ccc(S(=O)(=O)C2(C(=O)NO)CCOCC2)cc1 [Example 232]
4 |  |  |  |  |  | IC50 (Human recombinant MMP-1; [1]): > 10000 nM; IC50 (Human recombinant MMP-2; [1]): 5 nM; IC50 (Human recombinant MMP-9; [1]): 45 nM; IC50 (Human recombinant MMP-13; [1]): 5 nM; IC50 (Human recombinant MMP-14; [1]): 600 nM | COC(C)(C)CCOc1ccc(S(=O)(=O)C2(C(=O)NO)CCOCC2)cc1 [Example 473]
5 |  |  |  |  |  | IC50 (Human recombinant MMP-1; [2]): > 10000 nM; IC50 (Human recombinant MMP-2; [2]): 450 nM; IC50 (Human recombinant MMP-9; [2]): > 10000 nM; IC50 (Human recombinant MMP-13; [2]): 3.5 nM; IC50 (Human recombinant MMP-14; [2]): > 10000 nM | O=C1c2ccccc2C(=O)N1CCCOc1ccc(S(=O)(=O)C2(C(=O)NO)CCOCC2)cc1 [Example 21, 4-[[4-[3-(1,3-dihydro-1,3-dioxo2H-isoindol-2-yl)propoxy]phenyl]sulfonyl]tetrahydro-N-hydroxy-2H-pyran-4-carboxamide]
6 |  |  |  |  |  | IC50 (Human recombinant MMP-1; [1]): > 10000 nM; IC50 (Human recombinant MMP-2; [1]): 13 nM; IC50 (Human recombinant MMP-9; [1]): 800 nM; IC50 (Human recombinant MMP-13; [1]): 3 nM; IC50 (Human recombinant MMP-14; [1]): 5000 nM | COc1cc(COCCCOc2ccc(S(=O)(=O)C3(C(=O)NO)CCOCC3)cc2)cc(OC)c1 [Example 453]
7 | > 10000 nM | 4.2 nM | 6 nM | 1 nM | > 10000 nM |  | O=C(NO)C1(S(=O)(=O)c2ccc(OCCCSc3nc4ccccc4o3)cc2)CCN(C2CC2)CC1 [Example 203]
8 |  |  |  |  |  | IC50 (Human recombinant MMP-1; [2]): > 10000 nM; IC50 (Human recombinant MMP-2; [2]): 22.6 nM; IC50 (Human recombinant MMP-9; [2]): 809 nM; IC50 (Human recombinant MMP-13; [2]): 1.3 nM; IC50 (Human recombinant MMP-14; [2]): > 10000 nM | COc1ccc(-c2coc(CCCOc3ccc(S(=O)(=O)C4(C(=O)NO)CCOCC4)cc3)n2)cc1 [Example 30, tetrahydro-N-hydroxy-4-[[4-[3-[4-(4-methoxyphenyl)-2-oxazolyl]propoxy]phenyl]sulfonyl]-2Hpyran-4-carboxamide]
9 |  |  |  |  |  | IC50 (Human recombinant MMP-1; [2]): > 10000 nM; IC50 (Human recombinant MMP-2; [2]): 9000 nM; IC50 (Human recombinant MMP-9; [2]): 5190 nM; IC50 (Human recombinant MMP-13; [2]): 15 nM; IC50 (Human recombinant MMP-14; [2]): > 10000 nM | CN(CCCOc1ccc(S(=O)(=O)C2(C(=O)NO)CCOCC2)cc1)C(=O)c1ccc(N(C)C)cc1 [Example 19, 4-[[4-[3-[[4-(dimethylamino)benzoyl]methylamino]propoxy]phenyl]sulfonyl]tetrahydro-N-hydroxy-2H-pyran-4-carboxamide]
10 | 1170 nM | 7.5 nM | 105 nM | 3 nM | > 10000 nM |  | CC(C)c1ccc(C(=O)NNC(=O)CCCOc2ccc(S(=O)(=O)C3(C(=O)NO)CCOCC3)cc2)cc1 [Example 246]
11 | > 10000 nM | 146 nM | 1820 nM | 0.6 nM | > 10000 nM |  | Cc1ccc(-c2nnc(CCCOc3ccc(S(=O)(=O)C4(C(=O)NO)CCOCC4)cc3)o2)c(C)c1 [Example 204]
12 | 3870 nM | 3.6 nM | 11.2 nM | 1.8 nM | 1420 nM |  | CN(C)Cc1ccc(C(=O)CCCCOc2ccc(S(=O)(=O)C3(C(=O)NO)CCN(C4CC4)CC3)cc2)cc1 [Example 187]
13 | > 10000 nM | 1370 nM | 7690 nM | 9.7 nM | > 10000 nM |  | CC(C)C[C@@H]1C(=O)N(CCCOc2ccc(S(=O)(=O)C3(C(=O)NO)CCOCC3)cc2)C(=O)N1c1ccccc1 [Example 105]
